Tests used:
SKOV-3 cell line = test: Antiproliferative effect against the SKOV-3 cell line (GI50, cell count); type: cell-based, human; conditions: for GI50: Homo sapiens, SK-OV-3, 72 h
Procedure: (§1) SKOV-3, A2780 and A2780 CIS were cultured and maintained, as previously described,[50] at 37 °C in RPMI 1640 medium (Euroclone) supplemented with 10% fetal bovine serum (FBS; Euroclone), L-glutamine and penicillin/streptomycin (SIGMA-ALDRICH). OVCA433, HEK-293T, HeLa, HCCLM3, SK-Hep-1, MCF-7, A549 and HCT-116 cells were maintained in DMEM medium (Euroclone) containing 10% FBS (Euroclone), L-glutamine and penicillin/streptomycin (SIGMA-ALDRICH). Wi-38 cells were cultured in DMEM medium (Euroclone) supplemented with 10% FBS (Euroclone), L-glutamine and penicillin/streptomycin (SIGMA-ALDRICH), and 1% non-essential amino acids (NEAA; Euroclone). The cultures were maintained in a constant temperature incubator at 37 °C with 5% CO2. […] Once cell adhesion had been promoted, the compounds were added to the culture medium. After 72 hours of treatment, the cells were counted, and the data analyzed by linear regression. Each experiment was carried out three times in triplicate and three separate cell counts were made for each sample. […] Afterwards, the concentration range was narrowed to the relative value obtained in the first evaluation in order to obtain an accurate value.

[1] = Cytotoxicity against non-tumor Wi-38 cells (CC50, cell count); type: cell-based; conditions: human, Wi-38 cells (non-tumor), 50% cytotoxicity concentration, 72 hours of treatment
Procedure: as §1

miRNA processing / RNAi = tested on: miRNA processing / RNAi; parameters: method as in PMID 18641635; conditions: cited from earlier work
[2] = tested on: cisplatin-resistant A2780 cells (A2780 CIS); test: Viable cells of cisplatin-resistant A2780 (A2780 CIS) treated with 33, cisplatin or both; type: cell-based, human; conditions: cisplatin 1 μM, 48 hours
Procedure: A2780 and SKOV-3 cells were treated with 50 μM of 33 for 72 h before RNA and protein extraction and expression analyses. A2780 and A2780 CIS were treated with 33 (30 μM) and/or cisplatin (1 μM, Sigma-Aldrich) for 48 hours while MCF-7, A549 and HCT-116 were treated with 33 (30 μM) for 72 hours. Total cell number and viability have been assessed using Trypan Blue Solution (Thermo Fisher Scientific) and Countess™ 3 Automated Cell Counter (Thermo Fisher Scientific).

[3] = 50% cell growth inhibition, 72 hours of treatment, cell count, ND = activity not dose dependent

Row | Compound | GI50 (SKOV-3 cell line; [3]) [µM] | CC50 at 72 h [1] [µM] | also measured
1 | Cn1cc(C(=O)O)c(=O)c2ccc(N3CCN(c4nccs4)CC3)nc21 [Compound 9] | 50 |  | 
2 | CN1CCN(c2c(F)cc3c(=O)c(C(=O)O)cn4c3c2SCC4)CC1 [Compound 10, rufloxacin, reference compound] | 100 |  | 
3 | Cc1c(N2Cc3ccccc3C2)c(N)cc2c(=O)c(C(=O)O)cn(C3CC3)c12 [Compound 13, 6-Amino-1-cyclopropyl-7-(1,3-dihydro-2H-isoindol-2-yl)-8-methyl-4-oxo-1,4-dihydroquinoline-3-carboxylic acid] | 28.8 ± 4.11 |  | 
4 | Cc1c(NCCN2CCCCC2)c(N)cc2c(=O)c(C(=O)O)cn(C3CC3)c12 [Compound 14, 6-Amino-1-cyclopropyl-8-methyl-4-oxo-7-[(2-piperidin-1-ylethyl)amino]-1,4-dihydroquinoline-3-carboxylic acid] | 103 ± 21.6 |  | 
5 | CCn1cc(C(=O)O)c(=O)c2cc(N)c(N3CCc4ccccc4C3)cc21 [Compound 16, 6-Amino-7-(3,4-dihydroisoquinolin-2(1H)-yl)-1-ethyl-4-oxo-1,4-dihydroquinoline-3-carboxylic acid] | 5.44 ± 0.13 | 8.19 ± 14.3 | 
6 | NC(=O)c1cn(C2CC2)c2cc(N3CCc4ccccc4C3)c(N)cc2c1=O [Compound 17, 6-Amino-1-cyclopropyl-7-(3,4-dihydroisoquinolin-2(1H)-yl)-4-oxo-1,4-dihydroquinoline-3-carboxamide] |  |  | GI50 SKOV-3 (SKOV-3 cell line; [3]): completely inactive
7 | Nc1cc2c(=O)c(C(=O)O)cn(C3CC3)c2cc1N1CCc2nccnc2C1 [Compound 19, 6-Amino-1-cyclopropyl-7-(7,8-dihydropyrido[3,4-b]pyrazin-6(5H)-yl)-4-oxo-1,4-dihydroquinoline-3-carboxylic acid] | 104 ± 2.03 |  | 
8 | Nc1cc2c(=O)c(C(=O)O)cn(C3CC3)c2cc1N1Cc2ccccc2C[C@H]1CO [Compound 23, 6-Amino-1-cyclopropyl-7-[(3S)-3-(hydroxymethyl)-3,4-dihydroisoquinolin-2(1H)-yl]-4-oxo-1,4-dihydroquinoline-3-carboxylic acid] | 46.2 ± 8.38 |  | 
9 | Nc1cc2c(=O)c(C(=O)O)cn(C3CC3)c2cc1N1CCC(c2ccccc2)CC1 [Compound 24, 6-Amino-1-cyclopropyl-4-oxo-7-(4-phenylpiperidin-1-yl)-1,4-dihydroquinoline-3-carboxylic acid] | 9.19 ± 1.05 | 45 ± 13.4 | 
10 | CCn1cc(C(=O)O)c(=O)c2cc(F)c(N3CCC(c4ccccc4)CC3)nc21 [Compound 30, 1-Ethyl-6-fluoro-4-oxo-7-(4-phenylpiperidin-1-yl)-1,4-dihydro-1,8-naphthyridine-3-carboxylic acid] | 8.34 ± 1.28 | 4.65 ± 5.96 | 
11 | Cc1c(N2CCc3ccccc3C2)c(F)cc2c(=O)c(C(=O)O)cn(C3CC3)c12 [Compound 32, 1-Cyclopropyl-7-(3,4-dihydroisoquinolin-2(1H)-yl)-6-fluoro-8-methyl-4-oxo-1,4-dihydroquinoline-3-carboxylic acid] | 25 ± 6.04 | 90.7 ± 30.9 | 
12 | O=C(O)c1cn(C2CC2)c2cc(N3CCNCC3)c(F)cc2c1=O [ciprofloxacin] |  |  | RNAi enhancer / SMER effect (miRNA processing / RNAi): very weak SMER
13 | N.N.[Cl][Pt][Cl] [cisplatin, reference compound] |  |  | resistance of A2780 CIS to cisplatin compared to A2780 [2]: significantly greater resistance to cisplatin
14 | CC1COc2c(N3CCN(C)CC3)c(F)cc3c(=O)c(C(=O)O)cn1c23 (centres unmarked) [ofloxacin] |  |  | RNAi enhancer / SMER effect (miRNA processing / RNAi): did not show any significant RNAi enhancer effect

Continued, in another order:

Row | GI50 (SKOV-3 cell line; [3]) [µM] | Compound | CC50 at 72 h [1] [µM] | also measured
15 | 50 | Cn1cc(C(=O)O)c(=O)c2cc(N)c(N3CCN(c4nccs4)CC3)cc21 [Compound 8] |  | 
16 | 13.1 ± 1.29 | CCn1cc(C(=O)O)c(=O)c2cc(N)c(N3CCc4ccccc4C3)c(C)c21 [Compound 11, 6-Amino-7-(3,4-dihydroisoquinolin-2(1H)-yl)-1-ethyl-8-methyl-4-oxo-1,4-dihydroquinoline-3-carboxylic acid] | 53.5 ± 20.6 | fold more toxic against tumor cells (CC50 Wi-38 vs GI50 SKOV-3) (SKOV-3 cell line; SKOV-3 versus Wi-38): approximately 4 fold
17 | 17.1 ± 2.61 | Cc1c(N2CCC(c3ccccc3)CC2)c(N)cc2c(=O)c(C(=O)O)cn(C3CC3)c12 [Compound 12, 6-Amino-1-cyclopropyl-8-methyl-4-oxo-7-(4-phenylpiperidin-1-yl)-1,4-dihydroquinoline-3-carboxylic acid] | 53 ± 14.9 | 
18 | 13.2 ± 1.13 | Nc1cc2c(=O)c(C(=O)O)cn(C3CC3)c2cc1N1CCc2ccccc2C1 [Compound 15, 6-Amino-1-cyclopropyl-7-(3,4-dihydroisoquinolin-2(1H)-yl)-4-oxo-1,4-dihydroquinoline-3-carboxylic acid] | 36.3 ± 8.86 | 
19 | 152 ± 3.05 | Nc1cc2c(=O)c(C(=O)O)cn(C3CC3)c2cc1N1CCc2ncncc2C1 [Compound 18, 6-Amino-1-cyclopropyl-7-(7,8-dihydropyrido[4,3-d]pyrimidin-6(5H)-yl)-4-oxo-1,4-dihydroquinoline-3-carboxylic acid] |  | 
20 | 65.4 ± 24.3 | Nc1cc2c(=O)c(C(=O)O)cn(C3CC3)c2cc1N1CCNc2ccccc21 [Compound 20, 6-Amino-1-cyclopropyl-7-(3,4-dihydroquinoxalin-1(2H)-yl)-4-oxo-1,4-dihydroquinoline-3-carboxylic acid] |  | 
21 | 23.7 ± 1.02 | Nc1cc2c(=O)c(C(=O)O)cn(C3CC3)c2cc1N1CCc2sccc2C1 [Compound 21, 6-Amino-1-cyclopropyl-7-(6,7-dihydrothieno[3,2-c]pyridin-5(4H)-yl)-4-oxo-1,4-dihydroquinoline-3-carboxylic acid] | 103 ± 15.5 | 
22 | 18.5 ± 1.71 | CC1c2ccccc2CCN1c1cc2c(cc1N)c(=O)c(C(=O)O)cn2C1CC1 (centres unmarked) [Compound 22, 6-Amino-1-cyclopropyl-7-(1-methyl-3,4-dihydroisoquinolin-2(1H)-yl)-4-oxo-1,4-dihydroquinoline-3-carboxylic acid] | 59.9 ± 5.95 | 
23 | 16 ± 2.94 | CCN(Cc1ccccc1)c1cc2c(cc1N)c(=O)c(C(=O)O)cn2C1CC1 [Compound 25, 6-Amino-7-[benzyl(ethyl)amino]-1-cyclopropyl-4-oxo-1,4-dihydroquinoline-3-carboxylic acid] | 79.7 ± 11.8 | 
24 | 33.9 ± 6.43 | Nc1cc2c(=O)c(C(=O)O)cn(C3CC3)c2cc1N(CCO)Cc1ccccc1 [Compound 26, 6-Amino-7-[benzyl(2-hydroxyethyl)amino]-1-cyclopropyl-4-oxo-1,4-dihydroquinoline-3-carboxylic acid] |  | fold increase in GI50 SKOV-3 versus 25 (SKOV-3 cell line; versus compound 25): 2 fold
25 | 46.8 ± 7.44 | O=C(O)c1cn(C2CC2)c2nc(N3CCc4ccccc4C3)c(F)cc2c1=O [Compound 28, 1-Cyclopropyl-7-(3,4-dihydroisoquinolin-2(1H)-yl)-6-fluoro-4-oxo-1,4-dihydro-1,8-naphthyridine-3-carboxylic acid] |  | 
26 | 16.2 ± 1.03 | CCN(Cc1ccccc1)c1nc2c(cc1F)c(=O)c(C(=O)O)cn2CC [Compound 29, 7-[Benzyl(ethyl)amino]-1-ethyl-6-fluoro-4-oxo-1,4-dihydro-1,8-naphthyridine-3-carboxylic acid] | 25.5 ± 11.5 | 
27 | 14.9 ± 3.24 | CCn1cc(C(=O)O)c(=O)c2cc(F)c(N3CCc4ccccc4C3)c(C)c21 [Compound 31, 7-(3,4-Dihydroisoquinolin-2(1H)-yl)-1-ethyl-6-fluoro-8-methyl-4-oxo-1,4-dihydroquinoline-3-carboxylic acid] | 56.6 ± 37.4 | 
